Laboratory results as given in US8809618B2, “Transgenic mouse for screening and for studies of the pharmacodynamics and pharmacokinetics of ligands acting on the oestrogen receptor and its intracellular receptors, and method for the preparation thereof” (T.O.P. (Transgenic Operative Products) S.R.L., priority 2000, dated 2014).
Entries after “also recorded” stand apart in the source; their conditions may differ.

Key:
[1] = system: oestrogen receptors; assay: Tissue distribution of E2-dependent luciferase induction in ovariectomised female transgenic mice; type: in vivo, mouse; conditions: 26 tissues, ovariectomised 2-month old females, s.c., 16 hours
Procedure: (§1) To verify the expression of the transgene in the different tissues and its inducibility by oestrogens, 4 independent experiments were carried out on 8 female individuals of each line (4 heterozygotic and 4 homozygotic). For each experiment, two female individuals were ovariectomised. […] The suspension was frozen and thawed three times, and centrifuged for 30 minutes at 13,000 g; the supernatant was collected and equal quantities of protein, measured by the colorimetric method of Bradford, were subjected to enzymatic testing to reveal the activity of the enzyme luciferase. The method for detection of the activity of the reporter was carried out with a kit by the procedure recommended by the producer (Sigma), mixing ca. 20 μg of protein extract with the luciferin substrate in the presence of 0.5 mM ATP and 30 mM DTT and measuring the […] emitted using a luminometer (Lumat BL 9500, Berthold). […] Luciferase enzymatic activity was evaluated and plotted in the graph. […]
The pharmacodynamics of any compound acting via intracellular receptors can also be correctly predicted by the transgenic model of the invention. As an illustrative example, […] luciferase activity was measured in 26 different tissues from 2-month old female mice which had been ovariectomised 2 weeks prior to the experiment. […]

[2] = system: ER reporter in primary bone marrow cells; assay: Luciferase expression in primary bone marrow cells from transgenic mice; type: cell-based, mouse; conditions: 16 hours; for luciferase accumulation, ligand alone: E2 0.01-10 nM, ICI and T 100 nM, Prog and Dex 10 nM; for luciferase accumulation in the presence of 1 nM E2: 100 nM ligand plus 1 nM E2
Procedure: Two millions of bone marrow cells were suspended in phenol red-free RPMI 1640 with 10% stripped serum. […] Bars represent the average.+−.s.e.m. of 5 individual experiments each done in triplicate. *(P<0.01 as compared to the control), **(P<0.005 as compared to the control), ° (P<0.05 as compared to the T-treated); P were calculated with ANOVA followed by Scheffe test. […] As a control, we also tested progesterone and dexamethasone (10 nM).

[3] = system: oestrogen receptor; assay: Time course of luciferase activity in bone and liver of transgenic mice after E2; type: in vivo, mouse; conditions: s.c. 50 μg/kg, sacrificed after 3, 6 or 16 hours
[4] = system: oestrogen receptors; assay: Agonistic/antagonistic action of ER ligands: luciferase activity in tissues of line 2 ERE-luciferase transgenic mice; type: in vivo, mouse; conditions: line 2 mice; for effect on E2-dependent activation of luciferase expression in vivo: 250 μg/kg one hour before 50 μg/kg E2
Procedure: To verify the expression of the transgene in the different tissues and its inducibility by oestrogens, 4 independent experiments were carried out on 8 female individuals of each line (4 heterozygotic and 4 homozygotic). For each experiment, two female individuals were ovariectomised. With the aim of reducing the oestrogens present in the bloodstream of the ovariectomised animals below the detection limit, there was a wait of two weeks before the induction experiment was carried out; the individuals were then subjected to subcutaneous (s.c.) injection of mineral oil with or without 50 μg/kg of dissolved 17-β oestradiol; 16 hours after the treatment, the individuals were sacrificed and the following tissues were dissected out of them: uterus, liver, spleen, lung, heart, kidney, hypothalamus and brain. The protein extracts were obtained by disintegration of the tissue with a homogenizer in the presence of a phosphate lysis buffer consisting of 0.1 M KH2PO4, 0.1 M K2HPO4, 1 mM DTT, 4 mM EGTA and 4 mM EDTA at pH 7.8. The suspension was frozen and thawed three times, and centrifuged for 30 minutes at 13,000 g; the supernatant was collected and equal quantities of protein, measured by the colorimetric method of Bradford, were subjected to enzymatic testing to reveal the activity of the enzyme luciferase. The method for detection of the activity of the reporter was carried out with a kit by the procedure recommended by the producer (Sigma), mixing ca. 20 μg of protein extract with the luciferin substrate in the presence of 0.5 mM ATP and 30 mM DTT and measuring the […] emitted using a luminometer (Lumat BL 9500, Berthold). With reference to FIGS. 5 to 7 of the attached drawings, individuals were subcutaneously injected (s.c.) with 50 μg/Kg 17β-estradiol (E2) or with vehicle (vegetable oil) and sacrificed at 24 hours. Luciferase enzymatic activity was evaluated and plotted in the graph. The arbitrary units are obtained considering the luciferase activity in the uterus of control individuals=100.
By subcutaneous injection of the substance in the presence or in the absence of 17-β oestradiol it is in fact possible to compare the distribution and the intensity of expression of the luciferase gene in the various tissues and to compare it with the control or with the injection of 17-β oestradiol alone. The effect of in vivo administration of two known ER antagonists was investigated in line 2 of transgenic mice. […] Luciferase is expressed as fold induction obtained as the ratio between luciferase activity in ligands treated/control mice.

[5] = system: oestrogen receptors; assay: Xenooestrogen activity: luciferase activity in liver and brain of transgenic mice injected s.c. with DDT; type: in vivo, mouse; conditions: s.c. 5000 μg/ml
Procedure: as §1

| Compound | luciferase accumulation, ligand alone [2] | luciferase accumulation in the presence of 1 nM E2 [2] | effect on E2-dependent activation of luciferase expression in vivo [4] | also measured |
| --- | --- | --- | --- | --- |
| C[C@]12CC[C@@H]3c4ccc(O)cc4CC[C@H]3[C@@H]1CC[C@@H]2O [E2, 17β-estradiol] | dose-dependent increase | – | – | luciferase enzyme content in tissues compared to controls [1]: induced an increase in the enzyme content compared to controls in oestrogen target organs; time of maximal luciferase accumulation [3]: 6 h |
| CC(=O)[C@H]1CC[C@H]2[C@@H]3CCC4=CC(=O)CC[C@]4(C)[C@H]3CC[C@]12C [progesterone] | did not have any effect | – | – | – |
| C[C@]12CC[C@@H]3c4ccc(O)cc4C[C@@H](CCCCCCCCC[S+]([O-])CCCC(F)(F)C(F)(F)F)[C@H]3[C@@H]1CC[C@@H]2O (some centres unmarked) [ICI 182,780] | did not sort [sic] any effect | blocked | blockade; also recorded: inhibits the E2-dependent activation of luciferase expression | – |
| Clc1ccc(C(c2ccc(Cl)cc2)C(Cl)(Cl)Cl)cc1 [DDT] | – | – | – | persistence of luciferase induction [5]: 72 h; time of maximal induction of luciferase activity ([5]; sacrificed at 3-72 hours, vs vehicle): 24 h |
| 4-hydroxytamoxifen | significant increase in luciferase levels even though lower than E2 at the same concentration | higher luciferase accumulation, yet the level reached was still lower than with E2 alone | blockade | agonist activity on luciferase expression in vivo ([4]; 250 μg/Kg alone, liver and brain): partial agonist activity; effect on E2-dependent activation of luciferase expression in vivo ([4]; listed as tamoxifen): inhibits the E2-dependent activation of luciferase expression |
